Results taken from patent publication US5646310A, “N-(2-cyanoethyl)-6-fluoroalkyl-2h-1-benzopyran derivatives” (Chugai Seiyaku Kabushiki Kaisha, priority 1993, dated 1997).

How the values were obtained:
[1] = tested on: thoracic aorta; assay: Extracted rat aorta, relaxation of KCl-induced constriction relative to maximum relaxation (Test Example 2); type: cell-based, male Sprague Dawley rat; details: relaxation of continuous constriction caused by 30 mM potassium chloride, rat aorta ring, 2 ml organ bath; read-out: 50% inhibitory concentration (EC50) relative to the maximum relaxation effect of the compound
Experimental: (§1) A thoracic aorta was extracted from male Sprague Dawley rat (450-600 g) to prepare a ring-formed sample having a width of 2 mm. The resulting sample was suspended at a tension of 2 g in a 2 ml organ bath containing Krebs-Henseleit solution, and a gas composed of 95% oxygen and 5% carbon dioxide was passed therethrough. A constriction reaction of the sample was recorded isometrically by a FD pick-up. After equilibration for 1 to 1.5 hour, 30 mM potassium chloride was added in order to constrict the tissue, and an activity of the test compound for relaxing the continuous constriction caused by potassium chloride was evaluated by determining a 50% inhibitory concentration (EC50) of the compound relative to the maximum relaxation effect of the compound.

[2] = tested on: thoracic aorta; assay: Extracted rat aorta, relaxation of KCl-induced constriction (Test Example 1); type: cell-based, male Sprague Dawley rat; details: relaxation of continuous constriction caused by 30 mM potassium chloride, rat aorta ring; read-out: 50% inhibitory concentration (IC50)
Experimental: as §1, with “an” for “a 2 ml”, “(IC50). As comparative compounds, N-(2-cyanoethyl)-2,2-dimethyl-6-nitro-2H-1-benzopyran-4-carbamide (Compound A) disclosed in WO 92/02514 and 6-trifluoromethyl--N-methyl-2,2-dimethyl-2H-1-benzopyran-4-carbothioamide (Compound B) disclosed in WO 92/14439 were used.” for “(EC50) of the compound relative to the maximum relaxation effect of the compound.”

CC1(C)Oc2ccc(C#N)cc2C(N2CCCC2=O)C1O (stereo not shown) [Cromakalim, cromakalim, reference compound]
EC50 [1]: 170 nM

CC1(C)C=C(C(=S)NCCC#N)c2cc(C(F)(F)C(F)(F)F)ccc2O1 [Compound 2, N-(2-cyanoethyl)-6-pentafluoroethyl-2,2-dimethyl-2H-1-benzopyran-4-carbothioamide]
IC50 [2]: 0.88 nM

N#CCCNC(=S)C1=CC(CF)(CF)Oc2ccc(C(F)(F)C(F)(F)F)cc21 [Compound 4, N-(2-cyanoethyl)-6-pentafluoroethyl-2,2-bis-fluoromethyl-2H-1-benzopyran-4-carbothioamide]
EC50 [1]: 0.019 nM

N#CCCNC(=S)C1=CC(CF)(CF)Oc2ccc(C(F)(F)F)cc21 [Compound 3, N-(2-cyanoethyl)-2,2-bisfluoromethyl-6-tri-fluoromethyl-2H-1-benzopyran-4-carbothioamide]
EC50 [1]: 0.021 nM

CC1(C)C=C(C(=O)NCCC#N)c2cc([N+](=O)[O-])ccc2O1 [Compound A, N-(2-cyanoethyl)-2,2-dimethyl-6-nitro-2H-1-benzopyran-4-carbamide, reference compound]
IC50 [2]: 2.8 nM

CNC(=S)C1=CC(C)(C)Oc2ccc(C(F)(F)F)cc21 [Compound B, 6-trifluoromethyl--N-methyl-2,2-dimethyl-2H-1-benzopyran-4-carbothioamide, reference compound]
IC50 [2]: 1.9 nM

CC1(C)C=C(C(=O)NCCC#N)c2cc(C(F)(F)C(F)(F)F)ccc2O1 [Compound 1, N-(2-cyanoethyl)-6-pentafluoroethyl-2,2-dimethyl-2H-1-benzopyran-4-carbamide]
IC50 [2]: 0.24 nM
